{"source": "patent US20220175862A1", "about": "“CO-ADMINISTRATION COMPOSITION FOR PREVENTING OR TREATING HYPERCHOLESTEROLEMIA, CONTAINING BALLOON-FLOWER EXTRACT OR PLATYCODIN D DERIVED THEREFROM AS ACTIVE INGREDIENT” (University-Industry Cooperation Group of Kyung Hee …, priority 2019, published 2022)", "key": {"HepG2 cells": {"system": "HepG2 cells", "test": "Cell viability assay (WST)", "assay_type": "cell-based", "conditions": "24 h", "description": "Cells were dispensed in a 96-well plate and treated with PG (10 μg/mL, 50 μg/mL, 100 μg/mL, 250 μg/mL, 500 μg/mL) or PD (1 μM, 2.5 μM, 5 μM) for 24 h. After incubation, a WST solution (Daeillab Service, Co., Seoul, Korea) was added to each well and further incubated for 2 h. Next, water-soluble formazan in the medium was measured at 450 nm using an ELISA reader (Molecular Devices, Palo Alto, Calif.).\nTo investigate whether PG and PD display cytotoxic effects on HepG2 cells, cell viability was examined by WST1 assay following treatment with different concentrations of PG (10 μg/mL, 50 μg/mL, 100 µg/mL, 250 μg/mL, 500 μg/mL) or PD (1 μM, 2.5 μM, 5 μM). […] However, when high concentrations of 500 μg/mL of PG and 5 μM of PD were treated, cell viability was measured as 85% and 86%, respectively."}, "LDLR protein": {"system": "LDLR protein", "test": "LDLR protein stability after cycloheximide (CHX) treatment, Western blot", "assay_type": "cell-based", "conditions": "PD 2.5 μM 24 h, then 100 μg/mL CHX", "description": "(§1) Cells were treated with PD and PG for 24 h. Proteins were separated on 10% SDS-PAGE and transferred to nitrocellulose membranes. The membranes were incubated overnight at 4° C. For reference, anti-LDLR, Mylip/IDOL and LXRα were purchased from Abcam (Cambridge, UK), and anti-GAPDH was purchased from Cell Signaling (MA, USA). Further, anti-PCSK9 was purchased from Proteintech (Chicago. USA). The blots were then incubated with HRP-conjugated secondary antibody for 1 h at room temperature and measured using a Pierce ECL Western Blotting Substrate (Thermo Scientific, MA, USA).\nConsidering that IDOL mRNA is decreased upon PG and PD treatment, it could be inferred that PG and PD are able to enhance LDLR protein stability. Therefore, LDLR protein levels remaining after treatment with cycloheximide (CHX) which blocks new protein synthesis were examined."}, "[1]": {"system": "hypercholesterolemia-induced rat", "conditions": "cited from earlier work"}, "[2]": {"system": "cell surface LDLR in HepG2 cells", "test": "Cell surface LDLR analysis by flow cytometry", "assay_type": "cell-based", "conditions": "2.5 μM of PD, 24 h", "description": "Cells were treated as described above for 24 h, harvested, and then incubated at 37° C. for 30 min with anti-LDLR (Abcam, Cambridge, UK) diluted at 1:60 in PBS containing 5% BSA. The cells were washed with 1% BSA in PBS and incubated with Alexa Fluor 488-conjugated goat anti-rabbit IgG (Invitrogen, CA, USA) using a 1:250 dilution at 37° C. for 30 min. The cells were fixed with 0.5% PFA for 10 min, resuspended in PBS, and measured by flow cytometry (FACSCalibur, BD Biosciences, San Jose, Calif., USA). Data were analyzed using a CellQuest Pro software (BD Biosciences, USA).\nNext, FACS analysis was performed to examine whether PG and PD increase LDLR expression on cell surface."}, "PCSK9": {"system": "PCSK9", "test": "PCSK9 Western blot", "assay_type": "cell-based", "conditions": "24 h, indicated concentrations", "description": "as §1"}, "[3]": {"system": "LDLR expression in HepG2 cells", "test": "LDLR protein expression by Western blot", "assay_type": "cell-based", "conditions": "24 h", "description": "as §1\nThere is a report that LDLR mediates the uptake of LDL-induced cholesterol from plasma, lowering blood cholesterol levels. Therefore, it was examined whether PG and PD upregulate LDLR expression in HepG2 cells.\nGenerally, statins are widely used for lowering blood levels of LDL-C, because they upregulate hepatic LDLR expression and enhance the uptake of LDL-C in the blood. To investigate whether PG and PD have a synergistic effect with statins on LDLR expression, HepG2 cells were treated with PG or PD together with simvastatin for 24 h, and then the expression levels of LDLR were examined by Western blotting."}, "LDLR mRNA in HepG2 cells": {"system": "LDLR mRNA in HepG2 cells", "test": "LDLR mRNA expression by RT-PCR", "assay_type": "cell-based", "conditions": "PD 1 μM, 2.5 μM, 24 h", "description": "(§2) Cells were dispensed in a 6-well plate, and treated with PD or PG for 24 h, and then total RNA was extracted using an R&A-BLUE Total RNA extraction kit (iNtRON Biotechnology, Inc., Korea). Next, complementary DNA (cDNA) was synthesized from 1 μg of RNA using a PrimeScript 1 st strand cDNA Synthesis Kit (Takara Biotechnology, Dalian. Liaoning, China). RT-PCR was performed with a Maxime PCR PreMix Kit (i-StarTaq) (iNtRON Biotechnology, Inc., Korea). Sequences of primers used herein are as in Table 1, and GAPDH was used as an internal control.\nTo define molecular mechanisms underlying the increased LDLR expression by PG and PD treatment, the effects of PG and PD on expression of genes including IDOL and PCSK9, which are known to regulate LDLR protein levels, were first examined."}, "[4]": {"system": "LDL uptake in HepG2 cells", "test": "LDL uptake assay (BODIPY-FL-LDL, confocal microscopy)", "assay_type": "cell-based", "conditions": "PD 2.5 μM 24 h, then BODIPY-LDL 1 h", "description": "Cells were dispensed in a 24-well plate and treated as described above. After treatment with drugs, the culture medium was removed and replaced with 5 μg/mL of BODIPY-FL-LDL (Invitrogen, CA, USA) at 37° C. for 1 h. The cells were washed with PBS containing 0.3% BSA and fixed with 4% paraformaldehyde (PFA) for 10 min. Nuclei were stained with 1 μg/mL of DAPI in 2% BSA for 1 min and analyzed using confocal microscopy.\nThen, confocal microscopy was performed."}, "LXRα": {"system": "LXRα", "test": "LXRα protein expression by Western blot", "assay_type": "cell-based", "conditions": "PD 1 μM, 2.5 μM, 5 μM, 24 h", "description": "as §1"}, "IDOL mRNA in HepG2 cells": {"system": "IDOL mRNA in HepG2 cells", "test": "IDOL mRNA expression by RT-PCR", "assay_type": "cell-based", "description": "as §2\nTo examine whether PD suppresses IDOL mRNA expression, co-treatment of T0901317 (LXR agonist) and PD was performed for 24 h. The LXR is a transcription factor that activates a target gene involved in lipid and cholesterol homeostasis, and IDOL is a representative target gene of LXR. In addition. T0901317 increases the expression of IDOL by binding to LXR."}}}
{"molecule": "C[C@@H]1O[C@@H](O[C@H]2[C@H](OC(=O)[C@]34CCC(C)(C)C[C@H]3C3=CC[C@@H]5[C@@]6(C)C[C@H](O)[C@H](O[C@@H]7O[C@H](CO)[C@@H](O)[C@H](O)[C@H]7O)C(CO)(CO)[C@@H]6CC[C@@]5(C)[C@]3(C)C[C@H]4O)OC[C@H](O)[C@@H]2O)[C@H](O)[C@H](O)[C@H]1O[C@@H]1OC[C@@H](O)[C@H](O[C@@H]2OC[C@](O)(CO)[C@H]2O)[C@H]1O", "note": "[PD, Platycodin D]", "values": [{"measurement": "cell viability", "setting": "HepG2 cells; 5 μM of PD", "value": 86, "unit": "%"}, {"measurement": "cytotoxic effects on HepG2 cells", "setting": "HepG2 cells; PD 1 μM to 2.5 μM", "value": "no significant cytotoxic effects"}, {"measurement": "LDLR protein stability after CHX, vs untreated cells", "setting": "LDLR protein", "value": "significantly stable"}, {"measurement": "cholesterol in the body", "setting": "[1]", "value": "effect of lowering cholesterol"}, {"measurement": "cell surface LDLR levels, as compared with a control", "setting": "[2]", "value": "1.2±0.07", "unit": "fold change"}, {"measurement": "proteolytic process of PCSK9", "setting": "PCSK9", "value": "do not affect"}, {"measurement": "LDLR expression (Western blot)", "setting": "[3]; HepG2 cells", "value": "induce LDLR expression in HepG2 cells in a dose-dependent manner"}, {"measurement": "LDLR mRNA expression", "setting": "LDLR mRNA in HepG2 cells", "value": "no significant effects"}, {"measurement": "increase in the uptake of LDL particles vs untreated control cells", "setting": "[4]", "value": 1.7, "unit": "fold"}, {"measurement": "LXR-α protein levels", "setting": "LXRα", "value": "did not change"}, {"measurement": "mRNA levels of IDOL", "setting": "IDOL mRNA in HepG2 cells; HepG2, 24 h", "value": "significantly decreased"}, {"measurement": "T0901317-induced increase of IDOL mRNA", "setting": "IDOL mRNA in HepG2 cells; co-treatment PD 2.5 μM and T0901317 10 μM, 24 h", "value": "attenuated"}]}
{"molecule": "O=S(=O)(c1ccccc1)N(CC(F)(F)F)c1ccc(C(O)(C(F)(F)F)C(F)(F)F)cc1", "note": "[T0901317, reference compound]", "values": [{"measurement": "mRNA levels of IDOL gene", "setting": "IDOL mRNA in HepG2 cells; T0901317 10 μM, 24 h", "value": "increased"}]}
{"molecule": "CCC(C)(C)C(=O)O[C@H]1C[C@@H](C)C=C2C=C[C@H](C)[C@H](CC[C@@H]3C[C@@H](O)CC(=O)O3)[C@H]21", "note": "[simvastatin, reference compound]", "values": [{"measurement": "increase in hepatic LDLR levels vs untreated control cells", "setting": "[3]; simvastatin 1 μM alone, HepG2", "value": "approximately 2.2 fold"}]}
